# Laboratory results: ChEMBL document CHEMBL5126578, “Organocatalyzed umpolung addition for synthesis of heterocyclic-fused arylidene-imidazolones as anticancer agents” (Bioorg Med Chem, 2022)
# The source made the active and inactive calls. The rule behind the calls is not given here.
# Assays:
# MCF7 [1] = test: Antiproliferative activity against human MCF7 cells assessed as reduction in cell viability incubated for 48 hrs by MTT assay; type: functional, cell-based; conditions: MCF7, 48 h
# HeLa = test: Antiproliferative activity against human HeLa cells for 24 hrs by MTT assay; type: functional, cell-based
# [2] = molecular target: Epidermal growth factor receptor (Homo sapiens, UniProt P00533); test: Inhibition of EGFR (unknown origin) assessed as kinase activity by measuring ATP remaining for 40 mins in presence of ATP by Kinase-Glo Plus luminescence kinase assay
# HEK-293T = test: Antiproliferative activity against human HEK293T cells assessed as reduction in cell viability for 48 hrs by MTT assay; type: functional, cell-based
# [3] = Antiproliferative activity against human H357 cells assessed as reduction in cell viability for 48 hrs by MTT assay; type: functional, cell-based; conditions: H357, 48 h
# [4] = Cytotoxicity against human MCF-10A cells assessed as reduction in cell viability for 48 hrs by MTT assay; type: toxicity, cell-based
# MCF7 [5] = test: Inhibition of human DNA topoisomerase activity in human MCF cells nuclear lysate assessed mediated supercoiled plasmid DNA relaxation by analyzing migration of supercoiled DNA at 0.5 uM by agarose gel electrophoresis; type: subcellular
# MDA-MB-231 [6] = test: Antiproliferative activity against human MDA-MB-231 cells assessed as reduction in cell viability for 48 hrs by MTT assay; type: functional, cell-based; conditions: MDA-MB-231, 48 h
# MCF7 [7] = test: Induction of apoptosis in human MCF7 cells assessed as increase in number of apoptotic nuclei at 4.2 to 5.5 uM for 48 hrs by DAPI staining based fluorescence microscopy; type: functional, cell-based; conditions: dose 4.2-5.5 µM
# MCF7 [8] = test: Induction of cell cycle arrest in human MCF7 cells assessed as accumulation at Sub-G1 phase at 4.2 uM for 48 hrs by PI staining based flow cytometry (Rvb= 0.9%); type: functional
# MCF7 [9] = test: Induction of cell cycle arrest in human MCF7 cells assessed as accumulation at G1 phase at 4.2 uM for 48 hrs by PI staining based flow cytometry (Rvb= 73.1%); type: functional
# MCF7 [10] = test: Induction of cell cycle arrest in human MCF7 cells assessed as accumulation at S phase at 4.2 uM for 48 hrs by PI staining based flow cytometry(Rvb= 4.6%); type: functional
# MCF7 [11] = test: Induction of cell cycle arrest in human MCF7 cells assessed as accumulation at G2/M phase at 4.2 uM for 48 hrs by PI staining based flow cytometry (Rvb= 21.4%); type: functional
# MCF7 [12] = test: Induction of apoptosis in human MCF7 cells assessed as fold change as decrease in BCL-XL protein expression level at 4.2 uM by Western blot analysis; type: functional
# MCF7 [13] = test: Induction of apoptosis in human MCF7 cells assessed as fold change as increase in Bax protein expression level at 4.2 uM by Western blot analysis; type: functional
# MCF7 [14] = test: Induction of apoptosis in human MCF7 cells assessed as fold change as decrease in BCL-XL protein expression level at 5.5 uM by Western blot analysis; type: functional
# MCF7 [15] = test: Induction of apoptosis in human MCF7 cells assessed as fold change as increase in Bax protein expression level at 5.5 uM by Western blot analysis; type: functional
# MCF7 [16] = test: Induction of apoptosis in human MCF7 cells assessed as upregulation of Caspase-3 expression level at 4.2 to 5.5 uM by TRIT-C staining based fluorescence microscopy; type: functional, cell-based; conditions: dose 4.2-5.5 µM
# MCF7 [17] = test: Inhibition of human DNA topoisomerase activity in human MCF cells nuclear lysate assessed mediated supercoiled plasmid DNA relaxation by analyzing migration of supercoiled DNA at 0.9 uM by agarose gel electrophoresis; type: subcellular
# [18] = Antiproliferative activity against VEGF-stimulated human Endothelial cells pre-incubated for 2 hrs followed by stimulation with human VEGF, bFGF and FBS for 18 hrs and measured after 28 hrs by AlamarBlue assay; type: functional, cell-based; conditions: Endothelial cell
# MDA-MB-231 [19] = test: Antiproliferative activity against human MDA-MB-231 cells for 48 hrs by MTT assay; type: functional, cell-based; conditions: MDA-MB-231, 48 h
# MCF7 [20] = test: Induction of apoptosis in human MCF7 cells assessed as increase in number of apoptotic nuclei at 3.8 to 5 uM for 48 hrs by DAPI staining based fluorescence microscopy; type: functional, cell-based; conditions: dose 3.8-5 µM
# MCF7 [21] = test: Induction of cell cycle arrest in human MCF7 cells assessed as accumulation at Sub-G1 phase at 3.8 uM for 48 hrs by PI staining based flow cytometry (Rvb= 0.9%); type: functional
# MCF7 [22] = test: Induction of cell cycle arrest in human MCF7 cells assessed as accumulation at G1 phase at 3.8 uM for 48 hrs by PI staining based flow cytometry (Rvb= 73.1%); type: functional
# MCF7 [23] = test: Induction of cell cycle arrest in human MCF7 cells assessed as accumulation at S phase at 3.8 uM for 48 hrs by PI staining based flow cytometry (Rvb=4.6%); type: functional
# MCF7 [24] = test: Induction of cell cycle arrest in human MCF7 cells assessed as accumulation at G2/M phase at 3.8 uM for 48 hrs by PI staining based flow cytometry (Rvb= 21.4%); type: functional
# MCF7 [25] = test: Induction of apoptosis in human MCF7 cells assessed as fold change as decrease in BCL-XL protein expression level at 3.8 uM by Western blot analysis; type: functional
# MCF7 [26] = test: Induction of apoptosis in human MCF7 cells assessed as fold change as increase in Bax protein expression level at 3.8 uM by Western blot analysis; type: functional
# MCF7 [27] = test: Induction of apoptosis in human MCF7 cells assessed as fold change as decrease in BCL-XL protein expression level at 5 uM by Western blot analysis; type: functional
# MCF7 [28] = test: Induction of apoptosis in human MCF7 cells assessed as fold change as increase in Bax protein expression level at 5 uM by Western blot analysis; type: functional
# MCF7 [29] = test: Induction of apoptosis in human MCF7 cells assessed as upregulation of Caspase-3 expression level at 3.8 to 5 uM by TRIT-C staining based fluorescence microscopy; type: functional, cell-based; conditions: dose 3.8-5 µM
# MCF7 [30] = test: Inhibition of human DNA topoisomerase activity in human MCF cells nuclear lysate assessed mediated supercoiled plasmid DNA relaxation by analyzing migration of supercoiled DNA at 1 uM by agarose gel electrophoresis; type: subcellular
# Chain of Epidermal growth factor receptor (P00533 whole entry): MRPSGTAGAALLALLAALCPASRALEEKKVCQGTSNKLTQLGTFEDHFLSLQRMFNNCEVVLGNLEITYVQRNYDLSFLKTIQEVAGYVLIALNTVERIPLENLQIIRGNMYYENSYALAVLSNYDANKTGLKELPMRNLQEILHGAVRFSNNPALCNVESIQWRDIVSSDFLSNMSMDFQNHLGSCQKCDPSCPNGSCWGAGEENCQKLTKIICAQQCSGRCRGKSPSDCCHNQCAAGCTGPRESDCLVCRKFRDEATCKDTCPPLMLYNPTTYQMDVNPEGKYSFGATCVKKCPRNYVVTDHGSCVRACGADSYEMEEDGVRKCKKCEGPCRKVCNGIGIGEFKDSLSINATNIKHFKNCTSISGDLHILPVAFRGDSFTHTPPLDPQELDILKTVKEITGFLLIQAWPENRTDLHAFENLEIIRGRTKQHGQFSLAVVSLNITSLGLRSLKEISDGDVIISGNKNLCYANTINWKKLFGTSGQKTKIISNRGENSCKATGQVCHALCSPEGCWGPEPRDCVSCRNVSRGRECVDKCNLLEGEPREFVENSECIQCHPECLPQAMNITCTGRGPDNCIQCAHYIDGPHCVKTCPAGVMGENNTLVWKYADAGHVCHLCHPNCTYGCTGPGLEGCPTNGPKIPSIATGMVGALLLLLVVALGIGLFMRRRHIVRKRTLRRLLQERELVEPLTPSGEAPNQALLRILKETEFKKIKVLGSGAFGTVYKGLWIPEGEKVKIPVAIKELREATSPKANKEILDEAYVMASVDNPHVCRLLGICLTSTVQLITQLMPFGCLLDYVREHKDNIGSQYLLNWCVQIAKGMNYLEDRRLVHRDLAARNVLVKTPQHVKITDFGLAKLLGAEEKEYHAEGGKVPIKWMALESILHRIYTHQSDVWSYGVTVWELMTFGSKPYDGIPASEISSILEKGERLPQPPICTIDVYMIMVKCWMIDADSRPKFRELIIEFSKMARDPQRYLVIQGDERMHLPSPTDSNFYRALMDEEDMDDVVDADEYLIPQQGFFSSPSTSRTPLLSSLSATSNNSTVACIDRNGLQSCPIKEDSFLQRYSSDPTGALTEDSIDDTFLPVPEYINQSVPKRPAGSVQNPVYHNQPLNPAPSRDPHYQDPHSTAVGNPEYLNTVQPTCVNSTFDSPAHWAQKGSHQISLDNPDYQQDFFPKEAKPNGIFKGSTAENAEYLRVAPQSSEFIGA
structure (smiles),measurement,setting,value
COC1=CC2=N/C(=C\c3cc(OC)c(OC)c(OC)c3)C(=O)N2C=C1,IC50,MCF7 [1],10 µM
O=C1/C(=C/c2ccccc2)N=C2Sc3cc(Br)ccc3N12,IC50,MCF7 [1],9.7 µM
CC1=CN2C(=O)/C(=C/c3ccccc3)N=C2C=C1,IC50,MCF7 [1],10 µM
O=C1/C(=C/c2ccccc2)N=C2C(Br)=CC(Br)=CN12,IC50,MCF7 [1],10 µM
O=C(Cc1csc2nc3ccccc3n12)Nc1cccc2ccccc12,IC50,HeLa,0.42 µM
same,IC50,[2],55 µM
COC1=CC2=N/C(=C\c3ccccc3)C(=O)N2C=C1,IC50,MCF7 [1],9.9 µM
COc1cc([C@@H]2c3cc4c(cc3[C@@H](O[C@@H]3O[C@@H]5CO[C@@H](C)O[C@H]5[C@H](O)[C@H]3O)[C@H]3COC(=O)[C@H]23)OCO4)cc(OC)c1O [ETOPOSIDE],IC50,HEK-293T,28 µM
same,IC50,[3],32 µM
same,IC50 at 48 h,[4],102 µM
same,inhibition,MCF7 [5],Active
COc1ccc(/C=C2\N=C3Sc4cccc(O)c4N3C2=O)cc1,IC50,MCF7 [1],7.5 µM
O=C1/C(=C/c2ccc(Cl)cc2)N=C2C(O)=CC=CN12,IC50,MCF7 [1],5.2 µM
COc1cccc2c1N1C(=O)/C(=C/c3ccccc3)N=C1S2,IC50,MCF7 [1],4.5 µM
O=C1/C(=C/c2ccccc2)N=C2Sc3ccccc3N12,IC50,MCF7 [1],9.4 µM
O=C1/C(=C/c2ccccc2)N=C2C([N+](=O)[O-])=CC(Br)=CN12,IC50,MCF7 [1],10 µM
O=C1/C(=C/c2ccc(Cl)cc2)N=C2Sc3cccc(O)c3N12,IC50,MCF7 [1],4.2 µM
same,IC50,MDA-MB-231 [6],5.4 µM
same,IC50,HEK-293T,5.8 µM
same,IC50,[3],5 µM
same,IC50 at 48 h,[4],40 µM
same,Activity,MCF7 [7],Active
same,Activity,MCF7 [8],4.3%
same,Activity,MCF7 [9],61.3%
same,Activity,MCF7 [10],24.8%
same,Activity,MCF7 [11],9.6%
same,fold change (FC),MCF7 [12],2.5
same,fold change (FC),MCF7 [13],3.5
same,fold change (FC),MCF7 [14],10
same,fold change (FC),MCF7 [15],6
same,Activity,MCF7 [16],Active
same,inhibition,MCF7 [17],Active
COC1=CC2=N/C(=C\c3ccc(OC)cc3)C(=O)N2C=C1,IC50,MCF7 [1],9.8 µM
COc1ccc(/C=C2\N=C3C(O)=CC=CN3C2=O)cc1,IC50,MCF7 [1],10 µM
O=C1/C(=C/c2ccccc2)N=C2N=CC=CN12,IC50,MCF7 [1],9.9 µM
CC1=CC=CN2C(=O)/C(=C/c3ccccc3)N=C12,IC50,MCF7 [1],9.8 µM
O=C1/C(=C/c2ccccc2)N=C2C=CC([N+](=O)[O-])=CN12,IC50,MCF7 [1],9 µM
CCN(CC)CCOc1cccc(-c2cn3c(n2)sc2ccccc23)c1,IC50,[18],0.0039 µM
COc1ccc2c(c1)sc1nc(/C=C/C(=O)c3ccc(OC)c(O)c3)cn12,IC50,MDA-MB-231 [19],1.2 µM
COc1ccc(/C=C2\N=C3Sc4cccc(OC)c4N3C2=O)cc1,IC50,MCF7 [1],7.8 µM
O=C1/C(=C/c2ccccc2)N=C2Sc3cccc(O)c3N12,IC50,MCF7 [1],3.8 µM
same,IC50,MDA-MB-231 [6],4 µM
same,IC50,HEK-293T,4.2 µM
same,IC50,[3],4.8 µM
same,IC50 at 48 h,[4],35 µM
same,Activity,MCF7 [20],Active
same,Activity,MCF7 [21],8.9%
same,Activity,MCF7 [22],37.5%
same,Activity,MCF7 [23],36.4%
same,Activity,MCF7 [24],17.2%
same,fold change (FC),MCF7 [25],2
same,fold change (FC),MCF7 [26],2
same,fold change (FC),MCF7 [27],10
same,fold change (FC),MCF7 [28],5
same,Activity,MCF7 [29],Active
same,inhibition,MCF7 [30],Active
COc1ccc2c(c1)SC1=N/C(=C\c3ccccc3)C(=O)N12,IC50,MCF7 [1],10 µM
COC1=CC(OC)=NC2=N/C(=C\c3ccccc3)C(=O)N12,IC50,MCF7 [1],9.7 µM
O=C1/C(=C/c2ccccc2)N=C2C=CC=CN12,IC50,MCF7 [1],9.8 µM
Cc1cccc2c1N1C(=O)/C(=C/c3ccccc3)N=C1S2,IC50,MCF7 [1],9.8 µM
O=C1/C(=C/c2ccccc2)N=C2C=C(O)C=CN12,IC50,MCF7 [1],9.2 µM
CCOC(=O)Oc1c(OC)cc(/C=C2\N=C3C=C(OC)C=CN3C2=O)cc1OC,IC50,MCF7 [1],8.9 µM
O=C1/C(=C/c2ccccc2)N=C2C(O)=CC=CN12,IC50,MCF7 [1],9.7 µM
O=C(Cc1csc2nc3ccccc3n12)Nc1cccc(O)c1,IC50,HeLa,0.42 µM
same,IC50,[2],55 µM
